Test results published in publication PMC4979471 (Cell Death Discovery, 2015).
Read-outs that look alike come from different tables or passages of the source.

Assays:
Assay in all cases: Kinase selectivity, P33-radiolabeled assay
Assay type in all cases: biochemical
Conditions in all cases: 10 μM ATP
[1] = target: T1, ERBB2/HER2 (Homo sapiens, UniProt P04626)
T1 construct: purchased Reaction Biology Corp
Outline: (§1)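 Duplicate single-concentration testing used 10 μM compound. The ATP concentration was also 10 μM.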

[2] = target: T2, IKKa/CHUK (Homo sapiens, UniProt O15111)
T2 construct: purchased Reaction Biology Corp
T2 sequence (O15111 1-745): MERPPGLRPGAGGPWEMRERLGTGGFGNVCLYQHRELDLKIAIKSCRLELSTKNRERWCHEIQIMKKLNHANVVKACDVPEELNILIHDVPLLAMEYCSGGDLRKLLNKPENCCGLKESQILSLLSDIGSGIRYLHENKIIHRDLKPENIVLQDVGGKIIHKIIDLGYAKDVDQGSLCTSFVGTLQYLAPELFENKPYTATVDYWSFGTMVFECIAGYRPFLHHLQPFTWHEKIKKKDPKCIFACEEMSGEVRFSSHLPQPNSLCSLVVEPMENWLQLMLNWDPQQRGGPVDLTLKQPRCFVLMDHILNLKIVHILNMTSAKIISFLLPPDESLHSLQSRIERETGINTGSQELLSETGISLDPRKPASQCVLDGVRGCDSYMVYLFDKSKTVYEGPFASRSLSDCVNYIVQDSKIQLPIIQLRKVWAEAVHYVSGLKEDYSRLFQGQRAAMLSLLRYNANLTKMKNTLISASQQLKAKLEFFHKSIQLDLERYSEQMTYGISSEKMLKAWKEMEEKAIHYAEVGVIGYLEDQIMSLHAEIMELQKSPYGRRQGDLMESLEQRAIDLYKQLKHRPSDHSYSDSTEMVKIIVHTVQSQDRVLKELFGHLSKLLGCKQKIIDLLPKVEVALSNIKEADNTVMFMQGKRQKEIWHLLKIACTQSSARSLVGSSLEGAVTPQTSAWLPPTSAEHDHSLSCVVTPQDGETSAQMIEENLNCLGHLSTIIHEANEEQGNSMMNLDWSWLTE
Outline: as §1

[3] = target: T3, MAPKAPK3 (Homo sapiens, UniProt Q16644)
T3 construct: purchased Reaction Biology Corp
T3 sequence (Q16644 whole entry): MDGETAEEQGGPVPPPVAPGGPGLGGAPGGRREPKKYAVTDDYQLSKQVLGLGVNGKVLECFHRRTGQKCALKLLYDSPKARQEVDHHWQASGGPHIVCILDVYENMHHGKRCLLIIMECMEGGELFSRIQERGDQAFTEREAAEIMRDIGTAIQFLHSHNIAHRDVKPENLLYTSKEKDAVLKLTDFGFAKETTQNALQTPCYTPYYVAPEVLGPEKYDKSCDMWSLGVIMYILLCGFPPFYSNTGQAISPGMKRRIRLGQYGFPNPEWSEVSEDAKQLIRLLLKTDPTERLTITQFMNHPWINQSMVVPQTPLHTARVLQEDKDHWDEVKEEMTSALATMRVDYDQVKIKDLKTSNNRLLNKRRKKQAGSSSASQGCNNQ
Outline: as §1

[4] = target: T4, MNK1 (Homo sapiens, UniProt Q9BUB5)
T4 construct: purchased Reaction Biology Corp
T4 sequence (Q9BUB5 whole entry): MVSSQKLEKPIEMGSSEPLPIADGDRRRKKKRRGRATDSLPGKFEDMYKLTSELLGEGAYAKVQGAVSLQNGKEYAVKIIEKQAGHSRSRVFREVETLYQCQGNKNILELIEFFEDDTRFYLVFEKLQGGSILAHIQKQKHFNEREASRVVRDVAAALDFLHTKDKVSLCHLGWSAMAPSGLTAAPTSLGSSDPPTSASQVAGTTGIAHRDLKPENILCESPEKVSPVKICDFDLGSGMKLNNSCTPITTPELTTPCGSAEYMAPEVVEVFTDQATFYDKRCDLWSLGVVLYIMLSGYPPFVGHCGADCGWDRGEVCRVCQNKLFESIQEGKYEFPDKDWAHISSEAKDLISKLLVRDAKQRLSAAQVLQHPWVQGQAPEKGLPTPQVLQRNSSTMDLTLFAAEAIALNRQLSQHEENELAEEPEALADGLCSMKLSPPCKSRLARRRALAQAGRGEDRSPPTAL
Outline: as §1

[5] = target: T5, PAK5 (Homo sapiens, UniProt Q9P286)
T5 construct: purchased Reaction Biology Corp
T5 sequence (Q9P286 whole entry): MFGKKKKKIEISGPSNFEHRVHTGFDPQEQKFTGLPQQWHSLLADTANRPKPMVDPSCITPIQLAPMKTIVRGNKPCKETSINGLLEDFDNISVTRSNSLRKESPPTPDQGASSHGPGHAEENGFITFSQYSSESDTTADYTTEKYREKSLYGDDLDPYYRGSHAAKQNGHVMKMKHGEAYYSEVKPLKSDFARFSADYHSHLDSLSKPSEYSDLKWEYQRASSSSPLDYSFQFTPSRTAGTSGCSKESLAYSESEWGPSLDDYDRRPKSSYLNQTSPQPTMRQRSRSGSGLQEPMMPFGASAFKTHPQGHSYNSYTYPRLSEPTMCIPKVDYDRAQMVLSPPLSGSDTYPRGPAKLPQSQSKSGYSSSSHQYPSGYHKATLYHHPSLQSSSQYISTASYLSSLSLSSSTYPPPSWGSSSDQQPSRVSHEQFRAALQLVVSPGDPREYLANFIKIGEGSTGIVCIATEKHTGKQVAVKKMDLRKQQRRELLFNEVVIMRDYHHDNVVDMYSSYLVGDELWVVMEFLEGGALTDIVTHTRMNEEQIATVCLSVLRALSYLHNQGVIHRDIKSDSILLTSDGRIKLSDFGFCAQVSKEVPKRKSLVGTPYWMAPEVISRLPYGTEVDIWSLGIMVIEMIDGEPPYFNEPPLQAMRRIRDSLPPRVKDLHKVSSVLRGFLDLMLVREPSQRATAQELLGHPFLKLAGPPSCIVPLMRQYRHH
Outline: as §1

[6] = target: T6, PKCa (Homo sapiens, UniProt P17252)
T6 construct: purchased Reaction Biology Corp
Outline: as §1

[7] = target: T7, RIPK5 (Homo sapiens, UniProt Q6XUX3)
T7 construct: purchased Reaction Biology Corp
T7 sequence (Q6XUX3 1-929): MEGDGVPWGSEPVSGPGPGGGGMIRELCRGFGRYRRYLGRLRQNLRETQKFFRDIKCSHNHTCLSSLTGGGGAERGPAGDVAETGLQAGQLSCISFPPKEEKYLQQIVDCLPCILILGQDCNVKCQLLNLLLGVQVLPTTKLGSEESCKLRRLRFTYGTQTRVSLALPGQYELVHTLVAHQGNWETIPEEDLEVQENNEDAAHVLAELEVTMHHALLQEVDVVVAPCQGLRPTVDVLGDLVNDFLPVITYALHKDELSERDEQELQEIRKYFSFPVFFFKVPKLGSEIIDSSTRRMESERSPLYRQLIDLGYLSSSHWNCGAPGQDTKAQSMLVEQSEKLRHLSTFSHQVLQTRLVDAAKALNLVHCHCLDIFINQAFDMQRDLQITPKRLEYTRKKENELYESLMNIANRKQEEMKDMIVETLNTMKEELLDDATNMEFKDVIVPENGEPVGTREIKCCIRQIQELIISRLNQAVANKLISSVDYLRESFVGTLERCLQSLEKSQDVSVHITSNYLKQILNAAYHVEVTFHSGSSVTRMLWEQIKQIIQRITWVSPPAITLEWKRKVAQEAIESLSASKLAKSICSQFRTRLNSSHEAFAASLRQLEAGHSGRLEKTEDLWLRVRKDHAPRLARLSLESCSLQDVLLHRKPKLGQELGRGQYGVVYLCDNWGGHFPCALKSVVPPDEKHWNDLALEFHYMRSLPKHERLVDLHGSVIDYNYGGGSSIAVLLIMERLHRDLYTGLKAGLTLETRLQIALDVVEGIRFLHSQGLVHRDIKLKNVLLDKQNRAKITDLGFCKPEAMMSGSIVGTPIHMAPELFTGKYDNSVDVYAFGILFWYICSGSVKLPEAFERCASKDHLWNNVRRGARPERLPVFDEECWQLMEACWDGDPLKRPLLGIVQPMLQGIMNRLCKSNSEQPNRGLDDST
Outline: as §1

[8] = target: T8, STK33 (Homo sapiens, UniProt Q9BYT3)
T8 construct: purchased Reaction Biology Corp
T8 sequence (Q9BYT3 whole entry): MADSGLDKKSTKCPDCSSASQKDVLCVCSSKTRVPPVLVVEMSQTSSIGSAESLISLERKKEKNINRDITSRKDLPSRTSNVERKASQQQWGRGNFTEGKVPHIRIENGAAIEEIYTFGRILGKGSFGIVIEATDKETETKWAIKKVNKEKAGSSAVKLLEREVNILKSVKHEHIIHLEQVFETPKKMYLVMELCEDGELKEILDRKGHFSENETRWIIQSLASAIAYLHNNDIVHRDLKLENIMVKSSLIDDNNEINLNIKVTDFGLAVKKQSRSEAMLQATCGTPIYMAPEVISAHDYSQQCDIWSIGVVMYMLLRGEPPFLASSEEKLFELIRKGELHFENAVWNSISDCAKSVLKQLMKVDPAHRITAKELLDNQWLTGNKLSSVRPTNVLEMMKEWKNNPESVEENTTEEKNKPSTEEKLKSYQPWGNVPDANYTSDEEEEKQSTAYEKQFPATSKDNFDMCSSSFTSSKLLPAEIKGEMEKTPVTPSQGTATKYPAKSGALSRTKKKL
Outline: as §1

[9] = target: T9, STK38/NDR1 (Homo sapiens, UniProt Q15208)
T9 construct: purchased Reaction Biology Corp
T9 sequence (Q15208 whole entry): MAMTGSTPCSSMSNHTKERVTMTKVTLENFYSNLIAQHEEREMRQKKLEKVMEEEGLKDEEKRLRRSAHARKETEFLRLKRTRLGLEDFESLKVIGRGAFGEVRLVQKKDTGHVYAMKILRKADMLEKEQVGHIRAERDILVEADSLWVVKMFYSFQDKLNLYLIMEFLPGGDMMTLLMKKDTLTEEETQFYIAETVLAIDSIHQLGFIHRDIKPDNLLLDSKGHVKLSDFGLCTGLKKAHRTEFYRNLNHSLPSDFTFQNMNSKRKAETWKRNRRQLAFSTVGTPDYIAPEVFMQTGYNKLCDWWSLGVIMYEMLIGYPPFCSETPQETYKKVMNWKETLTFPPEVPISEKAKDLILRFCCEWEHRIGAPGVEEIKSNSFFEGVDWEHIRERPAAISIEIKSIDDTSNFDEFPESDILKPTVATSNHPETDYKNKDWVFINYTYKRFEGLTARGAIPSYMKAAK
Outline: as §1

[10] = read-out: % Enzyme Activity (relative to DMSO controls) AVG
[11] = read-out: % Enzyme Activity (relative to DMSO controls) Data 1
[12] = read-out: % Enzyme Activity (relative to DMSO controls) Data 2

T1 sequence (P04626 23-1255): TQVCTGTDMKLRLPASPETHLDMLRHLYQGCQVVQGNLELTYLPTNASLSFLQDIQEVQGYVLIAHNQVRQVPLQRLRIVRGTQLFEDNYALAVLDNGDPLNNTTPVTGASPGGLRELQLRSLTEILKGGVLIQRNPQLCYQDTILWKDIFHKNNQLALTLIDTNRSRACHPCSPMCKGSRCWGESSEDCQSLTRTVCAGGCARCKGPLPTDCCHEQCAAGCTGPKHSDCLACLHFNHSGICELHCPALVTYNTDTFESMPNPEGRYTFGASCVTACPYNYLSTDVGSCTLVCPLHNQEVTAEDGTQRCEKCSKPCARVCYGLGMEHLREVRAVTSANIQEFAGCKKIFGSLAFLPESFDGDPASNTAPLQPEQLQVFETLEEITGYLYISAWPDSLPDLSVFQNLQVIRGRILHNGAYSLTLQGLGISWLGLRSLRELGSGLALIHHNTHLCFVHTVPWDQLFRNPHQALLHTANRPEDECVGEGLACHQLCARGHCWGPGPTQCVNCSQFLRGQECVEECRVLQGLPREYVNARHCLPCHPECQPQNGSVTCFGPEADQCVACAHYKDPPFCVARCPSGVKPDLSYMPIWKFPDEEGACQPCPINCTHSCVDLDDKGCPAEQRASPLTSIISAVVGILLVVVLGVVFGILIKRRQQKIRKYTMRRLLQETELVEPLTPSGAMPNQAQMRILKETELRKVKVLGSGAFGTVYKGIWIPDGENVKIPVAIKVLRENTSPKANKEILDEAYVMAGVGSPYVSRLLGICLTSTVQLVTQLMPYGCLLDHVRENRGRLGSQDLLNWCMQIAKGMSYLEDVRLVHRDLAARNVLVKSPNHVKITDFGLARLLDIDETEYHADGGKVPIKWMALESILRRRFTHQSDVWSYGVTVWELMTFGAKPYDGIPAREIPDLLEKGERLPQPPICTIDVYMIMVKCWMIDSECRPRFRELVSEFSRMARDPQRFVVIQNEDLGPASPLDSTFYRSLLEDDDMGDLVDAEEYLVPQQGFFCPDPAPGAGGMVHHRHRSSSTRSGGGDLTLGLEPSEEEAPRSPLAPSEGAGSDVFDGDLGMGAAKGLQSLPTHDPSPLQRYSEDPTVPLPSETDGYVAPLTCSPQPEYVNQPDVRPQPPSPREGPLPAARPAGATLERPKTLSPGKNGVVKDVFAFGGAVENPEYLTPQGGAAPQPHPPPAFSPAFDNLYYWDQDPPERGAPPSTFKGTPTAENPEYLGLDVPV

CC(C)(C)C(=O)N1N=CC[C@H]1c1ccccc1 [GSK′963]
remaining activity at 10 µM [1, 10]: 105%
remaining activity at 10 µM [1, 11]: 102%
remaining activity at 10 µM [1, 12]: 107%
remaining activity at 10 µM [2, 10]: 89.5%
remaining activity at 10 µM [2, 11]: 91.1%
remaining activity at 10 µM [2, 12]: 88%
remaining activity at 10 µM [3, 10]: 103%
remaining activity at 10 µM [3, 11]: 104%
remaining activity at 10 µM [3, 12]: 103%
remaining activity at 10 µM [4, 10]: 117%
remaining activity at 10 µM [4, 11]: 111%
remaining activity at 10 µM [4, 12]: 122%
remaining activity at 10 µM [5, 10]: 124%
remaining activity at 10 µM [5, 11]: 119%
remaining activity at 10 µM [5, 12]: 128%
remaining activity at 10 µM [6, 10]: 96.9%
remaining activity at 10 µM [6, 11]: 95.7%
remaining activity at 10 µM [6, 12]: 98%
remaining activity at 10 µM [7, 10]: 101%
remaining activity at 10 µM [7, 11]: 102%
remaining activity at 10 µM [7, 12]: 99.6%
remaining activity at 10 µM [8, 10]: 103%
remaining activity at 10 µM [8, 11]: 104%
remaining activity at 10 µM [8, 12]: 102%
remaining activity at 10 µM [9, 10]: 102%
remaining activity at 10 µM [9, 11]: 100%
remaining activity at 10 µM [9, 12]: 104%
